Legend:
mALDH1a3 = target: T1, mALDH1a3 (Mus musculus, UniProt Q9JHW9); assay: Aldh1a3 enzyme inhibition assay, recombinant mALDH1a3; format: biochemical; details: resorufin fluorescence, 20° C.
T1 construct: made in house; host or cells: E. coli BL21-DE3, pET-Aldh1a3
T1 sequence (Q9JHW9 1-512): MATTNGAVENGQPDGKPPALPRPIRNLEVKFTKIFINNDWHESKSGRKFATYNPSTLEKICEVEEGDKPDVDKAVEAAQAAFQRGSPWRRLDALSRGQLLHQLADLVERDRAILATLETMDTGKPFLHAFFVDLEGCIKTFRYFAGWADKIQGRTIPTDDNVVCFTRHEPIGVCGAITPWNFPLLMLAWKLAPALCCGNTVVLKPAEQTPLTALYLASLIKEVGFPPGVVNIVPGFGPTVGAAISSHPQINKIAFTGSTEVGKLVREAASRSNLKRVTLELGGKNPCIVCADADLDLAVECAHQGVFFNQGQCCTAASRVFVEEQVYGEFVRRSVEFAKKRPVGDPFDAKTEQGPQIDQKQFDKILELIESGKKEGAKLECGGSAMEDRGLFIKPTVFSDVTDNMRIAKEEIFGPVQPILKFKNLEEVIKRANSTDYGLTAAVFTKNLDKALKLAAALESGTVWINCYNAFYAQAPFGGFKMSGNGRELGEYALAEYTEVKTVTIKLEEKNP
Excerpt: (§1) Recombinant enzyme and inhibitor added immediately before assay. Reaction rate measured by resorufin fluorescence.

ALDH1a3 = target: T2, ALDH1a3 (Homo sapiens, UniProt P47895); assay: Aldh1a3 enzyme inhibition assay, recombinant hALDH1a3; format: biochemical; set-up: made in house; host or cells: E. coli BL21-DE3, pET-Aldh1a3; details: resorufin fluorescence, 20° C.
T2 sequence (P47895 1-512): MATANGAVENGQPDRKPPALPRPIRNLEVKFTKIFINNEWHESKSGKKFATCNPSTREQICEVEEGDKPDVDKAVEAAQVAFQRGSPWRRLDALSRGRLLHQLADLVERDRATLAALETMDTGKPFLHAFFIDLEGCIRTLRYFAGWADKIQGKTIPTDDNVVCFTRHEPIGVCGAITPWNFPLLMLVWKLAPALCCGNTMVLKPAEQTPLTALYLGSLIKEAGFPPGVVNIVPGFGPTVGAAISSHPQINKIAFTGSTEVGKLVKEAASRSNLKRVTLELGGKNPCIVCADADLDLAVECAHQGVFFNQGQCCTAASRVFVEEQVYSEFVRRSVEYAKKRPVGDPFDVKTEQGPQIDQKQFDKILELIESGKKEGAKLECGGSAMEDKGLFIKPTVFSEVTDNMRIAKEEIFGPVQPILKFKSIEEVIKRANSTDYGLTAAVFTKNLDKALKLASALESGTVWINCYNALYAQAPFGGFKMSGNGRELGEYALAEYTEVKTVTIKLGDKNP
Excerpt: as §1

Compound	IC50 (mALDH1a3) [µM]	IC50 (ALDH1a3) [µM]
O=C1CCc2cc(NC(=O)c3ccncc3C(F)(F)F)ccc2N1 [Compound 54, N-(2-oxo-3,4-dihydro-1H-quinolin-6-yl)-3-(trifluoromethyl)pyridine-4-carboxamide]	> 5	0.25 to 1
CC1(C)Cc2cc(Nc3cnc4ccc(C(=O)O)cc4n3)ccc2NC1=O [Compound 118, 3-[(3,3-dimethyl-2-oxo-1,4-dihydroquinolin-6-yl)amino]quinoxaline-6-carboxylic acid]	> 5	> 5
CCc1cnccc1C(=O)Nc1ccc2c(c1)CC(C)(CC)C(=O)N2 (stereo not drawn) [Compound 62, 3-ethyl-N-(3-ethyl-3-methyl-2-oxo-1,4-dihydroquinolin-6-yl)pyridine-4-carboxamide]	> 5	1 to 5
CC1(C)CC(=O)Nc2ccc(Nc3nccc4ccccc34)cc21 [Compound 34, 6-(1-isoquinolylamino)-4,4-dimethyl-1,3-dihydroquinolin-2-one]	> 5	> 5
Cc1nc(Nc2ccc3c(c2)CC(C)(C)C(=O)N3)nc2ccccc12 [Compound 132, 3,3-dimethyl-6-[(4-methylquinazolin-2-yl)amino]-1,4-dihydroquinolin-2-one]	0.25 to 1	0.25 to 1
CC(C)=Cc1cnc(C)cc1C(=O)Nc1ccc2c(c1)CC(C)(C)C(=O)N2 [Compound 69]	> 5	> 5
Cc1ccc2nc(Nc3ccc4c(c3)CCC(=O)N4)ccc2c1 [Compound 89, 6-[(6-methyl-2-quinolyl)amino]-3,4-dihydro-1H-quinolin-2-one]	1 to 5	> 5
CCc1cnccc1C(=O)Nc1ccc2c(c1)CN(C)C(=O)N2 [Compound 20, 3-ethyl-N-(3-methyl-2-oxo-1,4-dihydroquinazolin-6-yl)pyridine-4-carboxamide]	> 5	1 to 5
N#Cc1cccc2ncc(Nc3ccc4c(c3)CCC(=O)N4)cc12 [Compound 100, 3-[(2-oxo-3,4-dihydro-1H-quinolin-6-yl)amino]quinoline-5-carbonitrile]	> 5	> 5
CCc1cnccc1C(=O)Nc1cc2ccc(=O)[nH]c2cc1F [Compound 39, 3-ethyl-N-(7-fluoro-2-oxo-1H-quinolin-6-yl) pyridine-4-carboxamide]	1 to 5	0.25 to 1
CC1(C)Cc2cc(Nc3nc4ccccc4[nH]3)ccc2NC1=O [Compound 98, 6-(1H-benzimidazol-2-ylamino)-3,3-dimethyl-1,4-dihydroquinolin-2-one]	1 to 5	1 to 5
Cc1cc(C(=O)Nc2ccc3c(c2)CC2(CC2)C(=O)N3)c(Cl)cn1 [Compound 68]	> 5	1 to 5
CC1(C)Cc2cc(Nc3ccc4ccncc4n3)ccc2NC1=O [Compound 94, 3,3-dimethyl-6-(1,7-naphthyridin-2-ylamino)-1,4-dihydroquinolin-2-one]	> 5	1 to 5
CC1(C)Cc2cc(Nc3cnc4ccccc4n3)ccc2NC1=O [Compound 92, 3,3-dimethyl-6-(quinoxalin-2-ylamino)-1,4-dihydroquinolin-2-one]	0.1 to 0.25	0.1 to 0.25
Cc1cc2ccccc2nc1Nc1ccc2c(c1)CC(C)(C)C(=O)N2 [Compound 134]	0.25 to 1	0.25 to 1
N#Cc1ccc2nc(Nc3ccc4c(c3)CCC(=O)N4)ccc2c1 [Compound 88, 2-[(2-oxo-3,4-dihydro-1H-quinolin-6-yl)amino]quinoline-6-carbonitrile]	> 5	> 5
O=C1CCc2cc(NC(=O)c3ccnc4ccccc34)ccc2N1 [Compound 52, N-(2-oxo-3,4-dihydro-1H-quinolin-6-yl)quinoline-4-carboxamide]	0.1 to 0.25	0.25 to 1
CCc1cnccc1C(=O)NCc1ccc2c(c1)CCC(=O)N2 [Compound 28, 3-ethyl-N-[(2-oxo-3,4-dihydro-1H-quinolin-6-yl)methyl]pyridine-4-carboxamide]	> 5	> 5
CC1(C)Cc2cc(Nc3cccc(Cl)n3)ccc2NC1=O [Compound 122, 6-[(6-chloro-2-pyridyl)amino]-3,3-dimethyl-1,4-dihydroquinolin-2-one]	> 5	> 5
CCc1cnccc1C(=O)Nc1ccc2c(c1)C(C)(C)CC(=O)N2 [Compound 19, N-(4,4-dimethyl-2-oxo-1,3-dihydroquinolin-6-yl)-3-ethyl-pyridine-4-carboxamide]	1 to 5	0.25 to 1

Compound	IC50 (mALDH1a3) [µM]	IC50 (ALDH1a3) [µM]
N#Cc1ccc2ccc(Nc3ccc4c(c3)CCC(=O)N4)nc2c1 [Compound 90, 2-[(2-oxo-3,4-dihydro-1H-quinolin-6-yl)amino]quinoline-7-carbonitrile]	> 5	> 5
Cc1cccc2ncc(Nc3ccc4c(c3)CCC(=O)N4)cc12 [Compound 101, 6-[(5-methyl-3-quinolyl)amino]-3,4-dihydro-1H-quinolin-2-one]	1 to 5	1 to 5
O=C1CCc2cc(Nc3nccc4ccccc34)ccc2N1 [Compound 22, 6-(1-isoquinolylamino)-3,4-dihydro-1H-quinolin-2-one]	> 5	> 5
CC(C)c1cnccc1C(=O)Nc1cc2c(cc1F)NC(=O)CC2 [Compound 6]	1 to 5	1 to 5
CCCc1cnccc1C(=O)Nc1ccc2c(c1)CCC(=O)N2 [Compound 60, N-(2-oxo-3,4-dihydro-1H-quinolin-6-yl)-3-propyl-pyridine-4-carboxamide]	0.25 to 1	0.1 to 0.25
CCc1cnccc1C(=O)Nc1ccc2c(c1)C(C)(C)C(=O)N2 [Compound 137]	> 5	> 5
CCc1cnc(C)cc1C(=O)Nc1ccc2c(c1)CCC(=O)N2 [Compound 56, 5-ethyl-2-methyl-N-(2-oxo-3,4-dihydro-1H-quinolin-6-yl)pyridine-4-carboxamide]	0.25 to 1	0.1 to 0.25
C=CCc1cnccc1C(=O)Nc1ccc2c(c1)CCC(=O)N2 [Compound 71, 3-allyl-N-(2-oxo-3,4-dihydro-1H-quinolin-6-yl)pyridine-4-carboxamide]	1 to 5	0.25 to 1
O=C1CCc2cc(Nc3cnc4ccccc4n3)ncc2N1 [Compound 126, 6-(quinoxalin-2-ylamino)-3,4-dihydro-1H-1,7-naphthyridin-2-one]	< 0.1	0.25 to 1
CC1(C)Cc2cc(Nc3ccc4ccncc4c3)ccc2NC1=O [Compound 104, 6-(7-isoquinolylamino)-3,3-dimethyl-1,4-dihydroquinolin-2-one]	> 5	> 5
O=S1(=O)CCc2cc(Nc3ccc4ccccc4n3)ccc2N1 [Compound 102]	> 5	> 5
CC1(C)Cc2cc(NN3CCC(c4ccccc4)C3=O)ccc2NC1=O (stereo not drawn) [Compound 106]	> 5	> 5
CCc1cnccc1C(=O)Nc1cc2c(cc1F)NC(=O)CC2(C)C [Compound 40]	0.25 to 1	1 to 5
CCc1c(C(=O)Nc2ccc3c(c2)CCC(=O)N3)cc[nH]c1=O [Compound 50, 3-ethyl-2-oxo-N-(2-oxo-3,4-dihydro-1H-quinolin-6-yl)-1H-pyridine-4-carboxamide]	1 to 5	0.1 to 0.25
CCc1c[n+]([O-])ccc1C(=O)Nc1ccc2c(c1)CCC(=O)N2 [Compound 73, 3-ethyl-1-oxido-N-(2-oxo-3,4-dihydro-1H-quinolin-6-yl)pyridin-1-ium-4-carboxamide]	> 5	1 to 5
N#Cc1cccc2nc(Nc3ccc4c(c3)CCC(=O)N4)ccc12 [Compound 86, 2-[(2-oxo-3,4-dihydro-1H-quinolin-6-yl)amino]quinoline-5-carbonitrile]	1 to 5	> 5
CN(C)Cc1cnccc1C(=O)Nc1ccc2c(c1)CCC(=O)N2 [Compound 58, 3-[(dimethylamino)methyl]-N-(2-oxo-3,4-dihydro-1H-quinolin-6-yl)pyridine-4-carboxamide]	> 5	> 5
Cc1cc(C(=O)Nc2ccc3c(c2)CCC(=O)N3)ccn1 [Compound 24]	> 5	> 5
CC1(C)Cc2cc(Nc3ccc4c(c3)NC(=O)CC4)ccc2NC1=O [Compound 114, 3,3-dimethyl-6-[(2-oxo-3,4-dihydro-1H-quinolin-7-yl)amino]-1,4-dihydroquinolin-2-one]	> 5	> 5

Source: patent US20230128402A1 (The Trustees of Princeton University, priority 2020, published 2023)
